Measurements reported in patent publication US8314140B2, “4-hydroxythiobenzamide derivatives of drugs” (Antibe Therapeutics Inc., priority 2006, dated 2012).

Assays:
visceral pain perception = test: Rat model of visceral pain perception (colorectal distension, AWR score); format: in vivo; conditions: 0.8 mL colorectal distention; for pain perception score: 100 mg/kg i.p., FIG. 3, FIG. 4
Method: A rat model of visceral pain perception, a pre-clinical model of irritable bowel syndrome, was used in the following example. Rats (male, Wistar, 200-250 g, obtained from Charles River, Monza, Italy), were housed in plastic cages and maintained under controlled conditions with 12-hours light/dark cycle with lights on at 7.00 AM. Tap water and standard laboratory chow were freely available. Before experiments, rats were individually trained by spending 2-3 hours per day in a plexiglass cage for 2-3 days. It allowed them to adjust to a movement-restriction environment. Food was withheld for 12 hours before colorectal distension (CRD) recording were performed. Experiments were performed in awake rats and were conducted in a blind manner in that the observer was not aware of the identity of drug administered to each animal.
In the testing day, rats were sedated with ether inhalation and a 2 cm long latex balloon was inserted intrarectally 2 cm from the anal verge and fixed at the base of the tail. The balloon was connected via a double-barreled cannula to a pressure transducer to continuously monitoring the rectal pressure by a computer (PowerLab PC, A.D. Instruments, Milford, Mass., USA) and to a syringe for inflation/deflation of the balloon. The rats were then housed in a small cage (20×8×8 cm) on an elevated Plexiglas™ platform and allowed to wake up and adapt for 1 hour. After recovery from sedation, animals underwent the CRD procedure and behavioral responses were tested. The night before the experiments, the balloons were inflated and left overnight so the latex stretched and the balloons became compliant.
CRD of 20 seconds, performed every 5 minutes, was applied in increment of 0.4 ml starting from 0.4 ml up to 1.6 ml water. To achieve an accurate measurement of the colonic parameters and perception, the distensions were repeated twice for each intensity and data for each animal were averaged for analysis. Each animal underwent a double set of CRD. Twenty minutes after the first sequence of CRD (0.4 mL-1.6 ml water), drugs were administered intraperitoneally (i.p.) and a second set of CRD was performed. Behavioral responses during the first and the second set of CRD were assessed and compared.
Behavioral response to CRD was assessed by measuring the abdominal withdrawal reflex (AWR) using a semiquantitative score (1).
A rat model of visceral pain perception as described above was used to compare pain perception scores for 5-amino-2-(4-thiocarbamoyl-phenoxycarbonyloxy)-benzoic acid (Compound XXVII) with or without glibenclamide, an inhibitor of ATP-sensitive K^+ (KATP) channels.
Experiments were carried out as described in Example 13, except that groups of 5 rats each were treated with vehicle, trimebutine maleate (10 mg/kg), or with equimolar doses of trimebutine thiocarbamoylbenzoate (Compound III) or thiocarbamolybenzoate alone.

[1] = H2S generation in buffer and liver homogenate (Example 15); format: in vitro ADME, rat; conditions: for H2S generation in buffer: buffer pH 7.4, 37° C.
Method: (Compound XXVII) was tested for H2S generation under three different conditions. Concentrations of H2S that were generated within 1 hour from 1 mM concentrations of L-cysteine, 4-HBT (4-hydroxythiobenzamide) and 5-amino-2-(4-thiocarbamoyl-phenoxycarbonyloxy)-benzoic acid were measured. H2S release was tested under three conditions: (i) when the compound was in buffer, (ii) when the compound was in a liver homogenate, and (iii) when the compound was in the liver homogenate together with an inhibitor of cystathionine γ-lyase (PAG=DL-propargylglycine; 2 mM). Results are shown in FIG. 6. *p<0.05 compared to the release from the vehicle group. ^ψp>0.05 versus the corresponding ‘homogenate’ group. The enzymatic capacity for H2S production was determined using the same reactor as described previously (Khan et al. (1980) Microchem J 25: 388-395, incorporated herein by reference). Two ml of an assay reaction mixture was introduced in the reactor. The mixture contained 1 mM L-cysteine (or compound), 2 mM pyridoxal 5′-phosphate, 100 mM potassium phosphate buffer (pH=7.4). A constant stream of nitrogen was passed through the mixture via gas-inlet capillary. Reactions were initiated by transferring the tubes from ice bath to a 37° C. water bath. The stream of nitrogen carried the sulfide acid in the second reactor containing 4 ml of sulfide anti-oxidant buffer (SAOB) solution, consisting of 2M KOH, 1M salicylic acid and 0.22M ascorbic acid at pH 12.8[5]. After incubating at 37° C. for 90 minutes, 1 ml of 10% trichloroacetic acid solution was added to mixture to stop the reaction. The remainder H2S in the mixture was carried out via nitrogen stream by other 60 minutes of incubation at 37° C. The concentration of sulfide in SAOB solution was measured with a sulfide sensitive electrode (Model 9616 S^2−/Ag^+ electrode, Orion Research, Beverly, Mass., USA). For studies in which the test compounds were incubated in liver homogenate, 100-150 mg of isolated rat livers were homogenized in 1 ml of ice-cold T-PER protein extractor. The homogenates were added to the reaction mixture at a concentration of 10% (wt/vol). DL-propargylglycine 2 mM was incubated with liver homogenates for 5 min at 37° C. prior the enzyme reaction. Khan, S. U. Morris, G. F. and Hidiroglou, M. (1980) Rapid estimation of sulfide in rumen and blood with a sulfide-specific ion electrode. Microchem J. 25:388-395, incorporated herein by reference.

gastric ulcers = test: Healing of acetic acid-induced gastric ulcers; format: in vivo, rat; conditions: oral twice-daily for 4 days; 30 μmol/kg (naproxen, Compound XX 60 μmol/kg); FIG. 17
Method: Gastric ulcers were induced via serosal application of acetic acid, as described by Elliott et al., A nitric oxide-releasing nonsteroidal anti-inflammatory drug accelerates gastric ulcer healing in rats. […] After 4 days of such treatment, the rats were euthanized and the stomach was excised and photographed. The area (in mm^2) of the ulcer was determined planimetrically by an individual unaware of the treatments given to the rats.

Row | Compound | pain perception score (visceral pain perception) | H2S generation in buffer ([1]; 1 mM compound, FIG. 6) | gastric ulcer healing (ulcer surface area) (gastric ulcers) | pain perception score after glibenclamide pretreatment (visceral pain perception; glibenclamide 10 mg/kg i.p. 30 min before, FIG. 3) | H2S generation in liver homogenate ([1]; 1 mM compound, 10% rat liver homogenate, FIG. 6) | H2S generation in liver homogenate with PAG ([1]; 1 mM compound, liver homogenate plus DL-propargylglycine 2 mM, FIG. 6) | concentration of H2S produced ([1]; 1 mM of the compound) [µM]
1 | NC(=S)c1ccc(O)cc1 [4-hydroxythiobenzamide] | did not have a significant effect on pain perception | did not release significant H2S | did not significantly affect the healing of gastric ulcers | – | – | – | –
2 | 5-amino-2-(4-thiocarbamoyl-phenoxycarbonyloxy)-benzoic acid [Compound XXVII] | significantly reduced the pain perception | releases H2S spontaneously | – | reversed by pretreatment with glibenclamide | greater when in the presence of tissue | lack of effect | 10 to 20
